Assay results: ChEMBL document CHEMBL1201862, “PubChem BioAssay data set” (2004)
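1) Cells in 96-well plates. 2) Compound, 48 h, 5 concentrations. 3) Linear interpolation between surrounding doses. 4) Unreached endpoint = highest concentration. GI50 is the concentration that inhibits growth by half.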 The source made the active and inactive calls. No stated cut-off is given here; in the data, active = GI50 up to about 1.1 µM and inactive = higher.

Assays:
Assay in all cases: DTP human tumour cell line panel, 48 h
[1] = test system: MDA-MB-231
[2] = test system: DU-145
[3] = test system: MOLT-4
[4] = test system: NCI/ADR-RES
[5] = test system: 786-0
[6] = test system: U-251
[7] = test system: PC-3
[8] = test system: SF-295
[9] = test system: M14
[10] = test system: SN12C
[11] = test system: RPMI-8226
[12] = test system: UACC-62
[13] = test system: SK-MEL-28
[14] = test system: NCI-H522
[15] = test system: OVCAR-4
[16] = test system: MCF7
[17] = test system: OVCAR-3
[18] = test system: HCT-15
[19] = test system: Malme-3M
[20] = test system: HCC 2998
[21] = test system: NCI-H460
[22] = test system: NCI-H226
[23] = test system: COLO 205
[24] = test system: KM12
[25] = test system: A498
[26] = test system: IGROV-1
[27] = test system: TK-10
[28] = test system: HL-60
[29] = test system: CAKI-1
[30] = test system: HCT-116
[31] = test system: Hs-578T
[32] = test system: SK-MEL-5
[33] = test system: MDA-N
[34] = test system: SR
[35] = test system: HOP-92
[36] = test system: T47D
[37] = test system: CCRF-CEM
[38] = test system: BT-549
[39] = test system: UO-31
[40] = test system: OVCAR-5
[41] = test system: EKVX
[42] = test system: MDA-MB-435
[43] = test system: HOP-62
[44] = test system: HT-29
[45] = test system: SK-OV-3
[46] = test system: SNB-75
[47] = test system: SNB-19
[48] = test system: NCI-H23
[49] = test system: SF-539
[50] = test system: SK-MEL-2
[51] = test system: ACHN
[52] = test system: LOX IMVI
[53] = test system: SW-620
[54] = test system: OVCAR-8
[55] = test system: UACC-257
[56] = test system: K562
[57] = test system: SF-268
[58] = test system: RXF 393
[59] = test system: A549
[60] = test system: M19-MEL
[61] = test system: HOP-18
[62] = test system: DMS-114
[63] = test system: DLD-1
[64] = test system: SNB-78
[65] = test system: KM-20L2
[66] = test system: LXFL 529
[67] = test system: DMS-273

Fc1cc(C2=C[C@H](c3ccc(Cl)cc3)NC(=S)N2)c(Cl)cc1Cl
GI50 [1]: 23.7 µM (inactive) | GI50 [2]: 62.8 µM (inactive) | GI50 [3]: 15.6 µM (inactive) | GI50 [4]: 64.1 µM (inactive) | GI50 [5]: 47.9 µM (inactive) | GI50 [6]: 29.6 µM (inactive) | GI50 [7]: 28.3 µM (inactive) | GI50 [8]: 28.2 µM (inactive) | GI50 [9]: 54.3 µM (inactive) | GI50 [10]: 29.3 µM (inactive) | GI50 [11]: 14.9 µM (inactive) | GI50 [12]: 57 µM (inactive) | GI50 [13]: > 100 µM (inactive) | GI50 [14]: 34 µM (inactive) | GI50 [15]: 35.7 µM (inactive) | GI50 [16]: 31.2 µM (inactive) | GI50 [17]: 33.1 µM (inactive) | GI50 [18]: 46.8 µM | GI50 [19]: > 100 µM (inactive) | GI50 [20]: 23.3 µM (inactive) | GI50 [21]: 34 µM (inactive) | GI50 [22]: 88.7 µM (inactive) | GI50 [23]: 47 µM (inactive) | GI50 [24]: 49.4 µM (inactive) | GI50 [25]: 27.7 µM (inactive) | GI50 [26]: 41.2 µM (inactive) | GI50 [27]: 45.1 µM (inactive) | GI50 [28]: 20.6 µM (inactive) | GI50 [29]: 43 µM (inactive) | GI50 [30]: 35.8 µM (inactive) | GI50 [31]: > 100 µM (inactive) | GI50 [32]: 11.6 µM (inactive) | GI50 [33]: 47.4 µM (inactive) | GI50 [34]: 40.6 µM (inactive) | GI50 [35]: 27.2 µM (inactive) | GI50 [36]: 19.2 µM (inactive) | GI50 [37]: 28.9 µM (inactive) | GI50 [38]: > 100 µM (inactive) | GI50 [39]: 42.2 µM (inactive) | GI50 [40]: > 100 µM (inactive) | GI50 [41]: 31.6 µM (inactive) | GI50 [42]: 43.9 µM (inactive) | GI50 [43]: 48.2 µM (inactive) | GI50 [44]: 36.5 µM (inactive) | GI50 [45]: > 100 µM (inactive) | GI50 [46]: 37.6 µM (inactive) | GI50 [47]: 76.7 µM (inactive) | GI50 [48]: 63.8 µM (inactive) | GI50 [49]: > 100 µM (inactive) | GI50 [50]: 27.2 µM (inactive) | GI50 [51]: 37.8 µM (inactive) | GI50 [52]: 48.6 µM (inactive) | GI50 [53]: 70.6 µM (inactive) | GI50 [54]: 39.9 µM (inactive) | GI50 [55]: 31.6 µM (inactive) | GI50 [56]: 5.62 µM (inactive) | GI50 [57]: 65.8 µM (inactive) | GI50 [58]: 31.1 µM (inactive) | GI50 [59]: 47.3 µM (inactive)

O=[N+]([O-])c1cc(Cl)ccc1S(=O)(=O)c1ccc(Cl)cc1[N+](=O)[O-]
GI50 [3]: 25 µM (inactive) | GI50 [5]: 15.5 µM (inactive) | GI50 [6]: 19.8 µM (inactive) | GI50 [8]: 15.1 µM (inactive) | GI50 [9]: 16.7 µM (inactive) | GI50 [10]: 15.7 µM (inactive) | GI50 [60]: 15 µM (inactive) | GI50 [11]: 29.6 µM (inactive) | GI50 [12]: 16.9 µM (inactive) | GI50 [13]: 18.1 µM (inactive) | GI50 [14]: 16.1 µM (inactive) | GI50 [15]: 17.9 µM (inactive) | GI50 [17]: 17.3 µM (inactive) | GI50 [18]: 17.3 µM | GI50 [19]: 13.5 µM (inactive) | GI50 [61]: 16.7 µM (inactive) | GI50 [21]: 16.1 µM (inactive) | GI50 [22]: 12.4 µM (inactive) | GI50 [23]: 17 µM (inactive) | GI50 [24]: 14.2 µM (inactive) | GI50 [62]: 11.3 µM (inactive) | GI50 [26]: 15.9 µM (inactive) | GI50 [27]: 17.6 µM (inactive) | GI50 [28]: 19.9 µM (inactive) | GI50 [29]: 19.7 µM (inactive) | GI50 [30]: 15.7 µM (inactive) | GI50 [32]: 14.6 µM (inactive) | GI50 [34]: 4.19 µM (inactive) | GI50 [63]: 15.6 µM (inactive) | GI50 [35]: 18.5 µM (inactive) | GI50 [64]: 16.1 µM (inactive) | GI50 [37]: 24.1 µM (inactive) | GI50 [39]: 17.1 µM (inactive) | GI50 [40]: 19.5 µM (inactive) | GI50 [43]: 21.3 µM (inactive) | GI50 [44]: 16.8 µM (inactive) | GI50 [45]: 15.8 µM (inactive) | GI50 [46]: 15.7 µM (inactive) | GI50 [65]: 16.7 µM (inactive) | GI50 [47]: 17.4 µM (inactive) | GI50 [48]: 15.2 µM (inactive) | GI50 [49]: 18 µM (inactive) | GI50 [50]: 18 µM (inactive) | GI50 [66]: 14.1 µM (inactive) | GI50 [51]: 16.1 µM (inactive) | GI50 [52]: 16.1 µM (inactive) | GI50 [53]: 18.5 µM (inactive) | GI50 [54]: 16 µM (inactive) | GI50 [55]: 13.5 µM (inactive) | GI50 [56]: 28.2 µM (inactive) | GI50 [57]: 15 µM (inactive) | GI50 [58]: 15.1 µM (inactive) | GI50 [67]: 14.2 µM (inactive) | GI50 [59]: 25.4 µM (inactive)
